Measured values published in ChEMBL document CHEMBL1201861, “Genomics of Drug Sensitity in Cancer screening data, Wellcome Trust Sanger Institute”.

Tests used:
Assay in all cases: cells
P30-OHK = type: functional, cell-based, Homo sapiens; details: Homo sapiens, P30-OHK;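 further: growth inhibition of the P30-OHK cell line, read out with a cell viability assay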
Description: SANGER: Inhibition of human P30-OHK cell growth in a cell viability assay.

TE-6 = type: functional, cell-based, Homo sapiens; details: Homo sapiens, TE-6;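 further: growth inhibition of TE-6 cells, read out with a cell viability assay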
Description: SANGER: Inhibition of human TE-6 cell growth in a cell viability assay.

ES7 = type: functional, cell-based, Homo sapiens; details: Homo sapiens, ES7;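 further: growth inhibition of cultured human ES7 cells, read out as cell viability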
Description: SANGER: Inhibition of human ES7 cell growth in a cell viability assay.

ES6 = type: functional, cell-based; details: Homo sapiens;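 further: growth inhibition of human ES6 cells, read out with a cell viability assay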
Description: SANGER: Inhibition of human ES6 cell growth in a cell viability assay.

LNCaP-Clone-FGC = type: functional, cell-based, Homo sapiens; details: Homo sapiens, LNCaP-Clone-FGC
Description: SANGER: Inhibition of human LNCaP-Clone-FGC cell growth in a cell viability assay.

NCI-H720 = type: functional, cell-based, Homo sapiens; details: Homo sapiens, NCI-H720;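 further: growth inhibition of human NCI-H720 cells determined by a cell viability assay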
Description: SANGER: Inhibition of human NCI-H720 cell growth in a cell viability assay.

NCI-H82 = type: functional, cell-based, Homo sapiens; details: Homo sapiens, NCI-H82;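 further: growth inhibition of NCI-H82 cells, measured with a cell viability readout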
Description: SANGER: Inhibition of human NCI-H82 cell growth in a cell viability assay.

COLO-824 = type: functional, cell-based, Homo sapiens; details: Homo sapiens, COLO-824
Description: SANGER: Inhibition of human COLO-824 cell growth in a cell viability assay.

MOLT-16 = type: functional, cell-based, Homo sapiens; details: Homo sapiens, MOLT-16;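 further: growth inhibition of human MOLT-16 cells, read out with a cell viability assay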
Description: SANGER: Inhibition of human MOLT-16 cell growth in a cell viability assay.

MMAC-SF = type: functional, cell-based; details: Homo sapiens;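 further: growth inhibition of human MMAC-SF cells, read out with a cell viability assay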
Description: SANGER: Inhibition of human MMAC-SF cell growth in a cell viability assay.

A388 = type: functional, cell-based; details: Homo sapiens;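 further: growth inhibition of human A388 cells, read out with a cell viability assay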
Description: SANGER: Inhibition of human A388 cell growth in a cell viability assay.

HCC2157 = type: functional, cell-based, Homo sapiens; details: Homo sapiens, HCC2157;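 further: growth inhibition of the cancer cell line, read out as cell viability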
Description: SANGER: Inhibition of human HCC2157 cell growth in a cell viability assay.

NB69 = type: functional, cell-based, Homo sapiens; details: Homo sapiens, NB69;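 further: growth inhibition of NB69 cells, determined by a cell viability assay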
Description: SANGER: Inhibition of human NB69 cell growth in a cell viability assay.

KARPAS-45 = type: functional, cell-based, Homo sapiens; details: Homo sapiens, KARPAS-45;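 further: inhibition of cell line growth, read out through a viability assay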
Description: SANGER: Inhibition of human KARPAS-45 cell growth in a cell viability assay.

NCI-H1581 = type: functional, cell-based, Homo sapiens; details: Homo sapiens, NCI-H1581;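 further: cell growth inhibition read out by a viability assay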
Description: SANGER: Inhibition of human NCI-H1581 cell growth in a cell viability assay.

NCI-H1648 = type: functional, cell-based, Homo sapiens; details: Homo sapiens, NCI-H1648;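 further: cell viability assay measuring inhibition of NCI-H1648 cell growth, from the Sanger screening data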
Description: SANGER: Inhibition of human NCI-H1648 cell growth in a cell viability assay.

ES8 = type: functional, cell-based, Homo sapiens; details: Homo sapiens, ES8;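 further: growth inhibition of human ES8 cells, read out with a cell viability assay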
Description: SANGER: Inhibition of human ES8 cell growth in a cell viability assay.

D-502MG = type: functional, cell-based, Homo sapiens; details: Homo sapiens, D-502MG
Description: SANGER: Inhibition of human D-502MG cell growth in a cell viability assay.

LB771-HNC = type: functional, cell-based; details: Homo sapiens;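 further: growth inhibition of LB771-HNC human cells, read out with a cell viability assay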
Description: SANGER: Inhibition of human LB771-HNC cell growth in a cell viability assay.

TE-9 = type: functional, cell-based, Homo sapiens; details: Homo sapiens, TE-9;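 further: cell growth inhibition, measured with a cell viability readout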
Description: SANGER: Inhibition of human TE-9 cell growth in a cell viability assay.

COR-L88 = type: functional, cell-based, Homo sapiens; details: Homo sapiens, COR-L88;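 further: growth inhibition of COR-L88 cells, read out with a cell viability assay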
Description: SANGER: Inhibition of human COR-L88 cell growth in a cell viability assay.

HCC1187 = type: functional, cell-based, Homo sapiens; details: Homo sapiens, HCC1187;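 further: growth inhibition of HCC1187 cells, read out with a cell viability assay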
Description: SANGER: Inhibition of human HCC1187 cell growth in a cell viability assay.

SF-268 = type: functional, cell-based, Homo sapiens; details: Homo sapiens, SF-268;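 further: growth inhibition of SF-268 cells determined with a cell viability assay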
Description: SANGER: Inhibition of human SF268 cell growth in a cell viability assay.

SK-N-FI = type: functional, cell-based, Homo sapiens; details: Homo sapiens, SK-N-FI;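 further: cell viability assay measuring growth inhibition of human SK-N-FI cells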
Description: SANGER: Inhibition of human SK-N-FI cell growth in a cell viability assay.

SCH = type: functional, cell-based, Homo sapiens; details: Homo sapiens, SCH;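 further: growth inhibition of human SCH cells, read out in a cell viability assay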
Description: SANGER: Inhibition of human SCH cell growth in a cell viability assay.

LB996-RCC = type: functional, cell-based, Homo sapiens; details: Homo sapiens, LB996-RCC
Description: SANGER: Inhibition of human LB996-RCC cell growth in a cell viability assay.

NMC-G1 = type: functional, cell-based, Homo sapiens; details: Homo sapiens, NMC-G1;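 further: growth inhibition of the NMC-G1 cell line, measured with a cell viability read-out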
Description: SANGER: Inhibition of human NMC-G1 cell growth in a cell viability assay.

ML-2 = type: functional, cell-based, Homo sapiens; details: Homo sapiens, ML-2;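 further: growth inhibition of ML-2 cells, measured with a cell viability readout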
Description: SANGER: Inhibition of human ML-2 cell growth in a cell viability assay.

LS-1034 = type: functional, cell-based, Homo sapiens; details: Homo sapiens, LS-1034
Description: SANGER: Inhibition of human LS-1034 cell growth in a cell viability assay.

HCE-T = type: functional, cell-based, Homo sapiens; details: Homo sapiens, HCE-T;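 further: cell viability assay read-out, reporting inhibition of HCE-T cell growth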
Description: SANGER: Inhibition of human HCE-T cell growth in a cell viability assay.

OMC-1 = type: functional, cell-based, Homo sapiens; details: Homo sapiens, OMC-1;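 further: growth inhibition of the OMC-1 cell line, measured by a cell viability assay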
Description: SANGER: Inhibition of human OMC-1 cell growth in a cell viability assay.

RPMI-8226 = type: functional, cell-based, Homo sapiens; details: Homo sapiens, RPMI-8226
Description: SANGER: Inhibition of human RPMI-8226 cell growth in a cell viability assay.

D-263MG = type: functional, cell-based, Homo sapiens; details: Homo sapiens, D-263MG
Description: SANGER: Inhibition of human D-263MG cell growth in a cell viability assay.

ALL-PO = type: functional, cell-based, Homo sapiens; details: Homo sapiens, ALL-PO;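 further: growth inhibition of ALL-PO cells, read out by a cell viability assay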
Description: SANGER: Inhibition of human ALL-PO cell growth in a cell viability assay.

SW872 = type: functional, cell-based, Homo sapiens; details: Homo sapiens, SW872;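 further: growth inhibition of SW872 cells, read out by a viability assay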
Description: SANGER: Inhibition of human SW872 cell growth in a cell viability assay.

HH = type: functional, cell-based, Homo sapiens; details: Homo sapiens, HH
Description: SANGER: Inhibition of human HH cell growth in a cell viability assay.

GR-ST = type: functional, cell-based, Homo sapiens; details: Homo sapiens, GR-ST
Description: SANGER: Inhibition of human GR-ST cell growth in a cell viability assay.

CAS-1 = type: functional, cell-based, Homo sapiens; details: Homo sapiens, CAS-1;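 further: growth inhibition of CAS-1 cells, measured with a cell viability assay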
Description: SANGER: Inhibition of human CAS-1 cell growth in a cell viability assay.

NCI-H1155 = type: functional, cell-based, Homo sapiens; details: Homo sapiens, NCI-H1155;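 further: cell growth inhibition measured by a viability assay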
Description: SANGER: Inhibition of human NCI-H1155 cell growth in a cell viability assay.

SK-UT-1 = type: functional, cell-based, Homo sapiens; details: Homo sapiens, SK-UT-1;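 further: growth inhibition of SK-UT-1 cells, measured by a cell viability assay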
Description: SANGER: Inhibition of human SK-UT-1 cell growth in a cell viability assay.

EW-1 = type: functional, cell-based, Homo sapiens; details: Homo sapiens, EW-1
Description: SANGER: Inhibition of human EW-1 cell growth in a cell viability assay.

SBC-1 = type: functional, cell-based, Homo sapiens; details: Homo sapiens, SBC-1;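 further: cell viability assay measuring growth inhibition of the SBC-1 cell line, IC50 being the concentration that halves growth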
Description: SANGER: Inhibition of human SBC-1 cell growth in a cell viability assay.

Ramos-2G6-4C10 = type: functional, cell-based, Homo sapiens; details: Homo sapiens, Ramos-2G6-4C10;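 further: growth inhibition of the cell line, measured by a cell viability read-out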
Description: SANGER: Inhibition of human Ramos-2G6-4C10 cell growth in a cell viability assay.

LAN-6 = type: functional, cell-based, Homo sapiens; details: Homo sapiens, LAN-6;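 further: growth inhibition of LAN-6 cells, determined with a cell viability assay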
Description: SANGER: Inhibition of human LAN-6 cell growth in a cell viability assay.

EW-16 = type: functional, cell-based, Homo sapiens; details: Homo sapiens, EW-16;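 further: growth inhibition of human EW-16 cells, read out as cell viability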
Description: SANGER: Inhibition of human EW-16 cell growth in a cell viability assay.

K5 = type: functional, cell-based, Homo sapiens; details: Homo sapiens, K5
Description: SANGER: Inhibition of human K5 cell growth in a cell viability assay.

MZ2-MEL = type: functional, cell-based, Homo sapiens; details: Homo sapiens, MZ2-MEL;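 further: growth inhibition of MZ2-MEL cells read out with a cell viability assay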
Description: SANGER: Inhibition of human MZ2-MEL cell growth in a cell viability assay.

DJM-1 = type: functional, cell-based, Homo sapiens; details: Homo sapiens, DJM-1;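 further: growth inhibition of human DJM-1 cells, read out by a cell viability assay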
Description: SANGER: Inhibition of human DJM-1 cell growth in a cell viability assay.

NCI-H1304 = type: functional, cell-based, Homo sapiens; details: Homo sapiens, NCI-H1304;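 further: growth inhibition of the cancer cell line, measured in a cell viability assay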
Description: SANGER: Inhibition of human NCI-H1304 cell growth in a cell viability assay.

NB5 = type: functional, cell-based, Homo sapiens; details: Homo sapiens, NB5;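 further: growth inhibition of NB5 cells, read out as cell viability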
Description: SANGER: Inhibition of human NB5 cell growth in a cell viability assay.

CC(C)C[C@H](NC(=O)[C@H](Cc1ccccc1)NC(=O)c1cnccn1)B(O)O [BORTEZOMIB]
IC50 (P30-OHK): > 20 nM
IC50 (TE-6): > 20 nM
IC50 (ES7): 0.766 nM
IC50 (ES6): < 0.0781 nM
IC50 (LNCaP-Clone-FGC): > 20 nM
IC50 (NCI-H720): > 20 nM
IC50 (NCI-H82): > 20 nM
IC50 (COLO-824): > 20 nM
IC50 (MOLT-16): 2.89 nM
IC50 (MMAC-SF): 0.216 nM
IC50 (A388): 0.356 nM
IC50 (HCC2157): > 20 nM
IC50 (NB69): 2.46 nM
IC50 (KARPAS-45): 3.54 nM
IC50 (NCI-H1581): 12.3 nM
IC50 (NCI-H1648): 4.13 nM
IC50 (ES8): 0.4 nM
IC50 (D-502MG): 6.37 nM
IC50 (LB771-HNC): 0.474 nM
IC50 (TE-9): 0.182 nM
IC50 (COR-L88): 3.47 nM
IC50 (HCC1187): 3.54 nM
IC50 (SF-268): 0.923 nM
IC50 (SK-N-FI): > 20 nM
IC50 (SCH): > 20 nM
IC50 (LB996-RCC): 3.4 nM
IC50 (NMC-G1): 3.68 nM
IC50 (ML-2): 0.821 nM
IC50 (LS-1034): > 20 nM
IC50 (HCE-T): 0.439 nM
IC50 (OMC-1): 4.18 nM
IC50 (RPMI-8226): 2.35 nM
IC50 (D-263MG): 0.807 nM
IC50 (ALL-PO): > 20 nM
IC50 (SW872): 0.996 nM
IC50 (HH): 2.13 nM
IC50 (GR-ST): > 20 nM
IC50 (CAS-1): 1.37 nM
IC50 (NCI-H1155): > 20 nM
IC50 (SK-UT-1): 0.163 nM
IC50 (EW-1): 5.31 nM
IC50 (SBC-1): 5.01 nM
IC50 (Ramos-2G6-4C10): 0.693 nM
IC50 (LAN-6): 2.05 nM
IC50 (EW-16): 2.75 nM
IC50 (K5): 1.28 nM
IC50 (MZ2-MEL): 0.407 nM
IC50 (DJM-1): 3.63 nM
IC50 (NCI-H1304): > 20 nM
IC50 (NB5): 2.27 nM

C=CC(=O)N1CCCC(Nc2nc(Nc3ccc(N(C)C(=O)CC)cc3)nc3[nH]cnc23)C1 (stereo not given)
IC50 (P30-OHK): > 10200 nM
IC50 (TE-6): > 10200 nM
IC50 (ES7): > 10200 nM
IC50 (ES6): > 10200 nM
IC50 (LNCaP-Clone-FGC): > 10200 nM
IC50 (NCI-H720): > 10200 nM
IC50 (NCI-H82): > 10200 nM
IC50 (COLO-824): > 10200 nM
IC50 (MOLT-16): > 10200 nM
IC50 (MMAC-SF): > 10200 nM
IC50 (A388): 7410 nM
IC50 (HCC2157): > 10200 nM
IC50 (NB69): > 10200 nM
IC50 (KARPAS-45): > 10200 nM
IC50 (NCI-H1581): > 10200 nM
IC50 (NCI-H1648): 8580 nM
IC50 (ES8): > 10200 nM
IC50 (D-502MG): > 10200 nM
IC50 (LB771-HNC): > 10200 nM
IC50 (TE-9): > 10200 nM
IC50 (COR-L88): > 10200 nM
IC50 (HCC1187): > 10200 nM
IC50 (SF-268): > 10200 nM
IC50 (SK-N-FI): > 10200 nM
IC50 (SCH): > 10200 nM
IC50 (LB996-RCC): > 10200 nM
IC50 (NMC-G1): > 10200 nM
IC50 (ML-2): > 10200 nM
IC50 (LS-1034): > 10200 nM
IC50 (HCE-T): > 10200 nM
IC50 (OMC-1): > 10200 nM
IC50 (RPMI-8226): > 10200 nM
IC50 (D-263MG): > 10200 nM
IC50 (ALL-PO): > 10200 nM
IC50 (SW872): > 10200 nM
IC50 (HH): > 10200 nM
IC50 (GR-ST): > 10200 nM
IC50 (CAS-1): > 10200 nM
IC50 (NCI-H1155): > 10200 nM
IC50 (SK-UT-1): > 10200 nM
IC50 (EW-1): > 10200 nM
IC50 (SBC-1): 7970 nM
IC50 (Ramos-2G6-4C10): > 10200 nM
IC50 (LAN-6): > 10200 nM
IC50 (EW-16): 2590 nM
IC50 (K5): > 10200 nM
IC50 (MZ2-MEL): > 10200 nM
IC50 (DJM-1): > 10200 nM
IC50 (NCI-H1304): > 10200 nM
IC50 (NB5): > 10200 nM

COc1ccc(-c2cc3nccn3c(Nc3ncccc3C(N)=O)n2)cc1OC
IC50 (P30-OHK): 427 nM
IC50 (TE-6): 6970 nM
IC50 (ES7): 1090 nM
IC50 (ES6): 1240 nM
IC50 (LNCaP-Clone-FGC): 2180 nM
IC50 (NCI-H720): > 8000 nM
IC50 (NCI-H82): > 8000 nM
IC50 (COLO-824): > 8000 nM
IC50 (MOLT-16): 571 nM
IC50 (MMAC-SF): > 8000 nM
IC50 (A388): 5950 nM
IC50 (HCC2157): > 8000 nM
IC50 (NB69): > 8000 nM
IC50 (KARPAS-45): 1900 nM
IC50 (NCI-H1581): > 8000 nM
IC50 (NCI-H1648): > 8000 nM
IC50 (ES8): 5980 nM
IC50 (D-502MG): > 8000 nM
IC50 (LB771-HNC): > 8000 nM
IC50 (TE-9): > 8000 nM
IC50 (COR-L88): > 8000 nM
IC50 (HCC1187): > 8000 nM
IC50 (SF-268): 2830 nM
IC50 (SK-N-FI): > 8000 nM
IC50 (SCH): > 8000 nM
IC50 (LB996-RCC): 1700 nM
IC50 (NMC-G1): 7550 nM
IC50 (ML-2): > 8000 nM
IC50 (LS-1034): > 8000 nM
IC50 (HCE-T): > 8000 nM
IC50 (OMC-1): > 8000 nM
IC50 (RPMI-8226): > 8000 nM
IC50 (D-263MG): > 8000 nM
IC50 (ALL-PO): 557 nM
IC50 (SW872): 1180 nM
IC50 (HH): > 8000 nM
IC50 (GR-ST): 3700 nM
IC50 (CAS-1): 4500 nM
IC50 (NCI-H1155): > 8000 nM
IC50 (SK-UT-1): 6240 nM
IC50 (EW-1): 1170 nM
IC50 (SBC-1): > 8000 nM
IC50 (Ramos-2G6-4C10): 2950 nM
IC50 (LAN-6): > 8000 nM
IC50 (EW-16): 1680 nM
IC50 (K5): 2930 nM
IC50 (MZ2-MEL): 3480 nM
IC50 (DJM-1): > 8000 nM
IC50 (NCI-H1304): > 8000 nM
IC50 (NB5): > 8000 nM
